From ChEMBL document CHEMBL3862012, “Methylene versus carbonyl bridge in the structure of new tubulin polymerization inhibitors with tricyclic A-rings” (Bioorg Med Chem, 2016)

test: Cytotoxicity against human Caki1 cells assessed as growth inhibition after 48 hrs by SRB assay; assay type: functional; settings: CAKI-1, 48 h

| SMILES | GI50 [nM] |
| --- | --- |
| COc1ccc(CN2c3ccccc3Sc3ccccc32)c(C(F)(F)F)c1 | 1530 |

test: Cytotoxicity against human OVCAR5 cells assessed as growth inhibition after 48 hrs by SRB assay; assay type: functional; settings: OVCAR-5, 48 h

| SMILES | GI50 [nM] |
| --- | --- |
| COc1ccc(CN2c3ccccc3Sc3ccccc32)c(C(F)(F)F)c1 | 9750 |

test: Cytotoxicity against human SF268 cells assessed as growth inhibition after 48 hrs by SRB assay; assay type: functional; settings: SF-268, 48 h

| SMILES | GI50 [nM] |
| --- | --- |
| COc1ccc(CN2c3ccccc3Sc3ccccc32)c(C(F)(F)F)c1 | 10900 |

test: Cytotoxicity against human LOXIMVI cells assessed as growth inhibition at 10 uM after 48 hrs by SRB assay relative to control; assay type: functional; settings: LOX IMVI, read-out: GI

| SMILES | inhibition of growth at 10 µM [%] |
| --- | --- |
| COc1ccc(CN2c3ccccc3Sc3ccccc32)c(C(F)(F)F)c1 | 45 |

test: Cytotoxicity against human HCT116 cells assessed as growth inhibition after 48 hrs by SRB assay; assay type: functional; settings: HCT-116, 48 h

| SMILES | GI50 [nM] |
| --- | --- |
| COc1ccc(CN2c3ccccc3Sc3ccccc32)c(C(F)(F)F)c1 | 419 |

test: Cytotoxicity against human RPMI8226 cells assessed as growth inhibition at 10 uM after 48 hrs by SRB assay relative to control; assay type: functional; settings: RPMI-8226, 48 h, read-out: GI

| SMILES | inhibition of growth at 10 µM [%] |
| --- | --- |
| COc1ccc(CN2c3ccccc3Sc3ccccc32)c(C(F)(F)F)c1 | 71 |

test: Cytotoxicity against human OVCAR4 cells assessed as growth inhibition at 10 uM after 48 hrs by SRB assay relative to control; assay type: functional; settings: OVCAR-4, 48 h, read-out: GI

| SMILES | inhibition of growth at 10 µM [%] |
| --- | --- |
| COc1ccc(CN2c3ccccc3Sc3ccccc32)c(C(F)(F)F)c1 | 56 |

test: Cytotoxicity against human RXF393 cells assessed as growth inhibition after 48 hrs by SRB assay; assay type: functional; settings: RXF 393, 48 h

| SMILES | GI50 [nM] |
| --- | --- |
| COc1ccc(CN2c3ccccc3Sc3ccccc32)c(C(F)(F)F)c1 | 380 |

test: Cytotoxicity against human SF268 cells assessed as growth inhibition at 10 uM after 48 hrs by SRB assay relative to control; assay type: functional; settings: SF-268, 48 h, read-out: GI

| SMILES | inhibition of growth at 10 µM [%] |
| --- | --- |
| COc1ccc(CN2c3ccccc3Sc3ccccc32)c(C(F)(F)F)c1 | 44 |

test: Cytotoxicity against human SF539 cells assessed as growth inhibition after 48 hrs by SRB assay; assay type: functional; settings: SF-539, 48 h

| SMILES | GI50 [nM] |
| --- | --- |
| COc1ccc(CN2c3ccccc3Sc3ccccc32)c(C(F)(F)F)c1 | 452 |

test: Cytotoxicity against human MCF7 cells assessed as growth inhibition after 48 hrs by SRB assay; assay type: functional; settings: MCF7, 48 h

| SMILES | GI50 [nM] |
| --- | --- |
| COc1ccc(CN2c3ccccc3Sc3ccccc32)c(C(F)(F)F)c1 | 349 |

test: Cytotoxicity against human Hs 578T cells assessed as growth inhibition at 10 uM after 48 hrs by SRB assay relative to control; assay type: functional; settings: read-out: GI

| SMILES | inhibition of growth at 10 µM [%] |
| --- | --- |
| COc1ccc(CN2c3ccccc3Sc3ccccc32)c(C(F)(F)F)c1 | 77 |

test: Cytotoxicity against human ACHN cells assessed as growth inhibition at 10 uM after 48 hrs by SRB assay relative to control; assay type: functional; settings: read-out: GI

| SMILES | inhibition of growth at 10 µM [%] |
| --- | --- |
| COc1ccc(CN2c3ccccc3Sc3ccccc32)c(C(F)(F)F)c1 | 51 |

test: Cytotoxicity against human HCT15 cells assessed as growth inhibition after 48 hrs by SRB assay; assay type: functional; settings: HCT-15, 48 h

| SMILES | GI50 [nM] |
| --- | --- |
| COc1ccc(CN2c3ccccc3Sc3ccccc32)c(C(F)(F)F)c1 | 489 |

test: Cytotoxicity against human COLO205 cells assessed as growth inhibition at 10 uM after 48 hrs by SRB assay relative to control; assay type: functional; settings: COLO 205, 48 h, read-out: GI

| SMILES | inhibition of growth at 10 µM [%] |
| --- | --- |
| COc1ccc(CN2c3ccccc3Sc3ccccc32)c(C(F)(F)F)c1 | 100 |

test: Cytotoxicity against human MDA-MB-435 cells assessed as growth inhibition after 48 hrs by SRB assay; assay type: functional; settings: MDA-MB-435, 48 h

| SMILES | GI50 [nM] |
| --- | --- |
| COc1ccc(CN2c3ccccc3Sc3ccccc32)c(C(F)(F)F)c1 | 396 |

test: Cytotoxicity against human OVCAR8 cells assessed as growth inhibition at 10 uM after 48 hrs by SRB assay relative to control; assay type: functional; settings: OVCAR-8, 48 h, read-out: GI

| SMILES | inhibition of growth at 10 µM [%] |
| --- | --- |
| COc1ccc(CN2c3ccccc3Sc3ccccc32)c(C(F)(F)F)c1 | 69 |

test: Cytotoxicity against human SNB19 cells assessed as growth inhibition at 10 uM after 48 hrs by SRB assay relative to control; assay type: functional; settings: SNB-19, 48 h, read-out: GI

| SMILES | inhibition of growth at 10 µM [%] |
| --- | --- |
| COc1ccc(CN2c3ccccc3Sc3ccccc32)c(C(F)(F)F)c1 | 67 |

test: Cytotoxicity against human SK-MEL-2 cells assessed as growth inhibition after 48 hrs by SRB assay; assay type: functional; settings: SK-MEL-2, 48 h

| SMILES | GI50 [nM] |
| --- | --- |
| COc1ccc(CN2c3ccccc3Sc3ccccc32)c(C(F)(F)F)c1 | 1180 |

test: Cytotoxicity against human UACC257 cells assessed as growth inhibition at 10 uM after 48 hrs by SRB assay relative to control; assay type: functional; settings: UACC-257, 48 h, read-out: GI

| SMILES | inhibition of growth at 10 µM [%] |
| --- | --- |
| COc1ccc(CN2c3ccccc3Sc3ccccc32)c(C(F)(F)F)c1 | 46 |

test: Cytotoxicity against human M14 cells assessed as growth inhibition after 48 hrs by SRB assay; assay type: functional; settings: M14, 48 h

| SMILES | GI50 [nM] |
| --- | --- |
| COc1ccc(CN2c3ccccc3Sc3ccccc32)c(C(F)(F)F)c1 | 446 |

test: Cytotoxicity against human IGROV1 cells assessed as growth inhibition after 48 hrs by SRB assay; assay type: functional; settings: IGROV-1, 48 h

| SMILES | GI50 [nM] |
| --- | --- |
| COc1ccc(CN2c3ccccc3Sc3ccccc32)c(C(F)(F)F)c1 | 3430 |

test: Cytotoxicity against human HOP92 cells assessed as growth inhibition after 48 hrs by SRB assay; assay type: functional; settings: HOP-92, 48 h

| SMILES | GI50 [nM] |
| --- | --- |
| COc1ccc(CN2c3ccccc3Sc3ccccc32)c(C(F)(F)F)c1 | 227 |

test: Cytotoxicity against human SK-MEL-2 cells assessed as growth inhibition at 10 uM after 48 hrs by SRB assay relative to control; assay type: functional; settings: SK-MEL-2, 48 h, read-out: GI

| SMILES | inhibition of growth at 10 µM [%] |
| --- | --- |
| COc1ccc(CN2c3ccccc3Sc3ccccc32)c(C(F)(F)F)c1 | 96 |

test: Cytotoxicity against human SK-MEL-5 cells assessed as growth inhibition after 48 hrs by SRB assay; assay type: functional; settings: SK-MEL-5, 48 h

| SMILES | GI50 [nM] |
| --- | --- |
| COc1ccc(CN2c3ccccc3Sc3ccccc32)c(C(F)(F)F)c1 | 500 |

test: Cytotoxicity against human DU145 cells assessed as growth inhibition after 48 hrs by SRB assay; assay type: functional; settings: DU-145, 48 h

| SMILES | GI50 [nM] |
| --- | --- |
| COc1ccc(CN2c3ccccc3Sc3ccccc32)c(C(F)(F)F)c1 | 2080 |

test: Cytotoxicity against human HCT15 cells assessed as growth inhibition at 10 uM after 48 hrs by SRB assay relative to control; assay type: functional; settings: HCT-15, 48 h, read-out: GI

| SMILES | inhibition of growth at 10 µM [%] |
| --- | --- |
| COc1ccc(CN2c3ccccc3Sc3ccccc32)c(C(F)(F)F)c1 | 63 |

test: Cytotoxicity against human COLO205 cells assessed as growth inhibition after 48 hrs by SRB assay; assay type: functional; settings: COLO 205, 48 h

| SMILES | GI50 [nM] |
| --- | --- |
| COc1ccc(CN2c3ccccc3Sc3ccccc32)c(C(F)(F)F)c1 | 640 |

test: Cytotoxicity against human SNB75 cells assessed as growth inhibition after 48 hrs by SRB assay; assay type: functional; settings: SNB-75, 48 h

| SMILES | GI50 [nM] |
| --- | --- |
| COc1ccc(CN2c3ccccc3Sc3ccccc32)c(C(F)(F)F)c1 | 241 |

test: Cytotoxicity against human OVCAR3 cells assessed as growth inhibition after 48 hrs by SRB assay; assay type: functional; settings: OVCAR-3, 48 h

| SMILES | GI50 [nM] |
| --- | --- |
| COc1ccc(CN2c3ccccc3Sc3ccccc32)c(C(F)(F)F)c1 | 513 |

test: Cytotoxicity against human SW620 cells assessed as growth inhibition at 10 uM after 48 hrs by SRB assay relative to control; assay type: functional; settings: SW-620, 48 h, read-out: GI

| SMILES | inhibition of growth at 10 µM [%] |
| --- | --- |
| COc1ccc(CN2c3ccccc3Sc3ccccc32)c(C(F)(F)F)c1 | 74 |

test: Cytotoxicity against human IGROV1 cells assessed as growth inhibition at 10 uM after 48 hrs by SRB assay relative to control; assay type: functional; settings: IGROV-1, 48 h, read-out: GI

| SMILES | inhibition of growth at 10 µM [%] |
| --- | --- |
| COc1ccc(CN2c3ccccc3Sc3ccccc32)c(C(F)(F)F)c1 | 57 |

test: Cytotoxicity against human OVCAR5 cells assessed as growth inhibition at 10 uM after 48 hrs by SRB assay relative to control; assay type: functional; settings: OVCAR-5, 48 h, read-out: GI

| SMILES | inhibition of growth at 10 µM [%] |
| --- | --- |
| COc1ccc(CN2c3ccccc3Sc3ccccc32)c(C(F)(F)F)c1 | 35 |

test: Cytotoxicity against human SW620 cells assessed as growth inhibition after 48 hrs by SRB assay; assay type: functional; settings: SW-620, 48 h

| SMILES | GI50 [nM] |
| --- | --- |
| COc1ccc(CN2c3ccccc3Sc3ccccc32)c(C(F)(F)F)c1 | 443 |

test: Cytotoxicity against human NCI-H460 cells assessed as growth inhibition after 48 hrs by SRB assay; assay type: functional; settings: NCI-H460, 48 h

| SMILES | GI50 [nM] |
| --- | --- |
| COc1ccc(CN2c3ccccc3Sc3ccccc32)c(C(F)(F)F)c1 | 456 |

test: Cytotoxicity against human SKOV3 cells assessed as growth inhibition after 48 hrs by SRB assay; assay type: functional; settings: SK-OV-3, 48 h

| SMILES | GI50 [nM] |
| --- | --- |
| COc1ccc(CN2c3ccccc3Sc3ccccc32)c(C(F)(F)F)c1 | 5570 |

test: Cytotoxicity against human HT-29 cells assessed as growth inhibition at 10 uM after 48 hrs by SRB assay relative to control; assay type: functional; settings: HT-29, 48 h, read-out: GI

| SMILES | inhibition of growth at 10 µM [%] |
| --- | --- |
| COc1ccc(CN2c3ccccc3Sc3ccccc32)c(C(F)(F)F)c1 | 98 |

test: Cytotoxicity against human NCI-H522 cells assessed as growth inhibition at 10 uM after 48 hrs by SRB assay relative to control; assay type: functional; settings: NCI-H522, 48 h, read-out: GI

| SMILES | inhibition of growth at 10 µM [%] |
| --- | --- |
| COc1ccc(CN2c3ccccc3Sc3ccccc32)c(C(F)(F)F)c1 | 100 |

test: Cytotoxicity against human 786-0 cells assessed as growth inhibition after 48 hrs by SRB assay; assay type: functional; settings: 786-0, 48 h

| SMILES | GI50 [nM] |
| --- | --- |
| COc1ccc(CN2c3ccccc3Sc3ccccc32)c(C(F)(F)F)c1 | 9050 |
